# Measurements taken from the OPERA property sets (Mansouri et al. 2018).
# Where a SMILES comes first, the peptide text is derived from it.
compound,measurement,setting,value
O=C(O)CCCNC(=O)c1ccccc1,solubility,,62.7 mM
CCCCOC(=O)CCOCC,solubility,25 °C,23 mM
CC(C)C(CC(=O)O)C(=O)O (centres undefined),solubility,20 °C,391 mM
O=S(=O)(CCCl)CCS(=O)(=O)CCCl,solubility,30 °C,35.6 mM
CC=C(CCCC)C(N)=O,solubility,20 °C,42.5 mM
NC(=O)Nc1ccc(Br)cc1,solubility,25 °C,23.2 mM
NC(=O)NCC(=O)NCC(=O)O,solubility,25 °C,126 mM
O=c1ccc(Br)ccc1O,solubility,25 °C,0.274 mM
CN(CCCCC(=O)O)S(=O)(=O)c1ccccc1,solubility,20 °C,27.6 mM
Cc1[nH]c(=O)[nH]c(=O)c1CC(=O)O,solubility,25 °C,4.89 mM
Cc1c2c(cc3c1ccc1ccccc13)CCCC2,solubility,27 °C,0.000179 mM
CC(C)(NC(N)=O)C(=O)O,solubility,20 °C,68.4 mM
O=C1C=Cc2ccccc2C1=NO,solubility,20 °C,1.16 mM
CCOC(OCC)C(C)=O,solubility,,622 mM
C[C@](N)(C(=O)O)c1ccccc1,solubility,22 °C,291 mM
NNC(N)=S,solubility,20 °C,110 mM
O=C(O)C(Cl)(Cl)CCCl,solubility,,261 mM
O=C1OCc2ccc(Cl)cc21,solubility,25 °C,3.3 mM
O=C(O)[C@@H]1CC[C@H](C(=O)O)SS1,solubility,25 °C,44.9 mM
CC1(C)CC(C(=O)O)C(C)(C)N1 (centres undefined),solubility,,2920 mM
CCCS,solubility,25 °C,25 mM
CC[C@@H]1C(=O)O[C@H]1C,solubility,20 °C,216 mM
Cc1nn(-c2ccccc2)c(N)c1C,solubility,,21.4 mM
COc1ncnc2nccnc12,solubility,20 °C,77.1 mM
O=C(O)C(O)C(O)c1ccccc1 (centres undefined),solubility,20 °C,494 mM
CCCCCCCCCCNC(=O)C(C)O (centres undefined),solubility,25 °C,0.436 mM
CCSS(=O)CC (centres undefined),solubility,,796 mM
O=S(=O)(c1ccccc1)N1CCCCC1,solubility,20 °C,2.91 mM
O=C(O)CCCP(=O)(O)O,solubility,20 °C,3170 mM
O=C(O)c1occ(Br)c1Br,solubility,20 °C,8.15 mM
CCOc1ccccc1C=CC(=O)[O-],solubility,25 °C,1.19 mM
O=P(O)(O)c1cccc2ccccc12,solubility,,24 mM
CCC(C)(C)NC(N)=O,solubility,27 °C,96.8 mM
COCc1ccccc1,solubility,20 °C,24.6 mM
CCCc1ncnc2c(O)cccc12,solubility,20 °C,1.2 mM
CC(=O)Nc1ccc(/C=N/NC(N)=S)cc1,solubility,20 °C,0.372 mM
C=CCOC(=O)C(C)OC(=O)C(C)O (centres undefined),solubility,25 °C,208 mM
O=C(O)C1=CCCc2ccccc21,solubility,,1.61 mM
CCCc1cc(F)ccc1O,solubility,,13 mM
Cc1ncnc2nc[nH]c12,solubility,20 °C,1490 mM
c1ccc(-c2cccnc2)nc1,solubility,25 °C,256 mM
Cn1c(C(N)=O)c(C(N)=O)c2ccccc21,solubility,,15.2 mM
O/N=C1\C=CCCC1,solubility,20 °C,146 mM
CCCC(=O)Oc1ccc([N+](=O)[O-])cc1,solubility,25 °C,0.115 mM
COc1ccccc1C(N)=O,solubility,20 °C,16.5 mM
Cn1c(=O)[nH]n(-c2ccccc2)c1=O,solubility,,1.05 mM
CCOCC(N)C(=O)O (centres undefined),solubility,20 °C,3340 mM
CC(=O)C1(C)CO1 (centres undefined),solubility,23 °C,2400 mM
CCc1nc2cnc(O)nc2nc1CC,solubility,20 °C,5.44 mM
CCCCC1(CCCC)C(=O)NC(=O)NC1=O,solubility,20 °C,1.33 mM
CC(C)C1OCCO1,solubility,,861 mM
Cc1ccc(O)c(CO)c1,solubility,20 °C,485 mM
CC1CCC2(CCC(C)O2)O1 (centres undefined),solubility,20 °C,356 mM
O=c1nccc[nH]1,solubility,20 °C,4730 mM
O=C(S)CCCCCCCCC(=O)S,solubility,26 °C,0.853 mM
CC1OC(=O)c2cc(N)ccc21 (centres undefined),solubility,25 °C,16.3 mM
Oc1ccc2c(c1)Sc1ccccc1N2,solubility,20 °C,2.66 mM
Clc1ncc2nccnc2n1,solubility,20 °C,200 mM
O=C(O)C1CCNCC1C(=O)O (centres undefined),solubility,,289 mM
CCOC(=O)N1CCN(C(=O)OCC)CC1,solubility,25 °C,187 mM
Cn1c(=O)c2c(n(C)c1=O)n(C)c(=O)n2C,solubility,20 °C,112 mM
CC1(O)CCC(C)(O)CC1 (centres undefined),solubility,,243 mM
Cn1cc([N+](=O)[O-])c(=O)[nH]c1=O,solubility,25 °C,10.1 mM
Cc1cccc(CO)c1,solubility,25 °C,409 mM
CC(C)[C@H](NC(=O)CN)C(=O)O (H-Gly-Val-OH),solubility,,2870 mM
O=C(O)COc1cccc(Cl)c1,solubility,20 °C,6.38 mM
O=C(O)Cc1c[nH]c(=O)[nH]c1=O,solubility,30 °C,23.5 mM
O=C(O)COCC(=O)O,solubility,25 °C,3110 mM
O=C(O)c1cc(Cl)ccc1O,solubility,20 °C,57.9 mM
N#CCCN(CCC#N)C(CC(=O)O)C(=O)O (racemic),solubility,25 °C,29.3 mM
CCCCOC(=O)c1ccc(O)c(I)c1,solubility,30 °C,0.125 mM
CC(O)C(C)Cl (centres undefined),solubility,20 °C,613 mM
CCC(CC)COC(C)=O,solubility,20 °C,44.4 mM
O=C(O)CCC(=O)c1ccc2ccccc2c1,solubility,25 °C,0.14 mM
CCOc1ccc(NC(C)=O)c(C)c1,solubility,25 °C,14.5 mM
CC(=O)NC(NC(C)=O)c1ccccc1,solubility,20 °C,48.5 mM
ON=C1CCCCCCCCC1=NO,solubility,25 °C,2.62 mM
CCCOC(=O)C(C)(C)O,solubility,,684 mM
C#CC#CC=C=CCCO,solubility,25 °C,12.9 mM
O=[N+]([O-])c1cccc(P(=O)(O)O)c1,solubility,22 °C,4830 mM
NCCCNc1ccccc1,solubility,,22.2 mM
CCN(CC)C(C#N)c1ccccc1 (centres undefined),solubility,30 °C,106 mM
CC(=O)C1CC(CC(=O)O)C1(C)C (centres undefined),solubility,20 °C,266 mM
CNCl,solubility,,1910 mM
CCOC(=O)c1c(C)oc(C)c(C(=O)OCC)c1=O,solubility,20 °C,29.8 mM
CC(=O)OCCCOC(C)=O,solubility,,624 mM
NC(C(=O)O)C(O)C(=O)O (centres undefined),solubility,25 °C,149 mM
CCCOCCC(=O)OCCC,solubility,25 °C,20.7 mM
OCc1ccccc1Br,solubility,20 °C,6.95 mM
Nc1ccc(Cl)cc1[N+](=O)[O-],solubility,20 °C,2.9 mM
O=C(O)c1c(O)ccc2ccccc12,solubility,25 °C,0.744 mM
CCCCCCCCCCCCCCNC(=O)C(C)O (centres undefined),solubility,25 °C,0.105 mM
C/C=C\CC1(C/C=C/C)C(=O)NC(=O)NC1=O,solubility,20 °C,6.35 mM
CC(O)(CCl)CCl,solubility,20 °C,657 mM
N#CC1CCCC1=O (centres undefined),solubility,,440 mM
COCc1ccc(C=O)o1,solubility,20 °C,317 mM
Oc1cnn(-c2ccccc2)c1,solubility,25 °C,10.9 mM
O=C(OC1CCNCC1)c1ccccc1,solubility,,48.7 mM
COc1ccc(C(=O)O)cc1C(=O)O,solubility,20 °C,0.765 mM
COC1CCCC(C)O1 (centres undefined),solubility,,256 mM
C=CCCN=C=S,solubility,20 °C,4.06 mM
CCC(C)S (centres undefined),solubility,20 °C,14.6 mM
C=CCOc1ccccc1C(N)=O,solubility,20 °C,5.93 mM
CCCC(C)CC(C)O (centres undefined),solubility,25 °C,13.2 mM
CCCC(Br)C(=O)NC(N)=O (centres undefined),solubility,,37.3 mM
CCCc1nc(N)c(CC)c(CCC)n1,solubility,23 °C,3.07 mM
CCCOCCC(=O)OC,solubility,25 °C,233 mM
CSCCC(C(=O)O)N(CCC#N)CCC#N (racemic),solubility,26 °C,47 mM
OCc1ccc(Cl)cc1,solubility,20 °C,17.5 mM
CCCCC(C)C(C)O (centres undefined),solubility,25 °C,8.75 mM
Cc1cc(C)c(C)c(C)n1,solubility,,49.3 mM
N#CCCNC(Cc1ccccc1)C(=O)O (racemic),solubility,26 °C,32.1 mM
N#CNC(N)=S,solubility,25 °C,989 mM
CC(C)(C)S(=O)(=O)C(C)(C)C,solubility,20 °C,60.6 mM
C=CCC1(CC)C(=O)NC(=O)NC1=O,solubility,20 °C,20.5 mM
CCCCCCCC(C(=O)O)C(=O)O,solubility,25 °C,9.1 mM
CCCCCNC(=O)C(C)O (centres undefined),solubility,25 °C,414 mM
O=C(O)c1cc(=O)nc(-c2ccccc2)[nH]1,solubility,,6.15 mM
Nc1ccc(C#Cc2ccc(N)cc2)cc1,solubility,,3.69 mM
S=c1[nH]sc(=S)[nH]1,solubility,20 °C,17.3 mM
Nc1nc2c(O)cccc2s1,solubility,20 °C,12 mM
Cn1c(=O)c2[nH]c(Cl)nc2n(C)c1=O,solubility,25 °C,31.1 mM
COc1ccc(NC(N)=O)cc1,solubility,21 °C,25.6 mM
COc1ccc2[nH]c(=O)cc(C(=O)O)c2c1,solubility,21 °C,0.776 mM
Sc1nc2ccccc2o1,solubility,25 °C,6.61 mM
O=I(=O)c1ccccc1,solubility,25 °C,14.4 mM
NN=c1nc[nH]c2nccnc12,solubility,20 °C,13.7 mM
Cc1cc(C)nc(N)n1,solubility,25 °C,325 mM
Oc1nc2ccccc2nc1O,solubility,25 °C,1.54 mM
OCc1cccc(O)c1,solubility,20 °C,540 mM
c1ccc(CCNCc2ccccc2)cc1,solubility,24 °C,1.89 mM
COC(=O)c1ccc([N+](=O)[O-])cc1C(=O)O,solubility,20 °C,8.79 mM
Cc1snnc1C(=O)O,solubility,20 °C,347 mM
CC(S(C)(=O)=O)S(C)(=O)=O,solubility,,38.1 mM
CCOc1ccc(NC(C)=O)c2cccnc12,solubility,20 °C,30.4 mM
CCCCC(O)CN(N=Cc1ccc([N+](=O)[O-])o1)C(N)=O (centres undefined),solubility,25 °C,0.268 mM
CC(C)CC1OCCO1,solubility,,427 mM
CCCCOC(=O)c1c(C(=O)O)cccc1[N+](=O)[O-],solubility,20 °C,1.91 mM
NC1=NC2=NC=NC2C(C(F)(F)F)=N1 (centres undefined),solubility,20 °C,0.733 mM
CC(=O)N[C@@H](CSc1ccc(Cl)c(Cl)c1)C(=O)O,solubility,20 °C,1.3 mM
CC(=O)OCCS,solubility,22 °C,31.6 mM
CCCC(O)CC(C)C (centres undefined),solubility,25 °C,12.4 mM
CCCCn1cnc2c1c(=O)n(C)c(=O)n2C,solubility,30 °C,15.6 mM
CC(=O)N[C@@H](C(=O)O)C(C)C (racemic),solubility,25 °C,354 mM
CCc1cc(C)cc(O)c1,solubility,25 °C,17 mM
CC(=O)Oc1ccccc1/C=C/C(=O)O,solubility,25 °C,0.698 mM
CC(C)CC(=O)Oc1ccc([N+](=O)[O-])cc1,solubility,25 °C,0.0403 mM
Cc1cc(C)c(C)cn1,solubility,25 °C,165 mM
O=C(O)c1ccc(C(=O)O)c(Br)c1,solubility,24 °C,7.35 mM
NC(=S)Nc1cccc([N+](=O)[O-])c1,solubility,20 °C,35.5 mM
Cc1ccc(C(=O)O)o1,solubility,20 °C,150 mM
c1ccc2c(c1)Nc1ccc3ccccc3c1S2,solubility,20 °C,0.000267 mM
NC(N)=N/C(N)=N/c1cccc2ccccc12,solubility,20 °C,4.84 mM
O=c1cccc2[nH]ccnc1-2,solubility,20 °C,45 mM
O=S(CCCl)CCCl,solubility,20 °C,68.5 mM
NC(N)=N/C(N)=N/c1ccc2ccccc2c1,solubility,21 °C,2.82 mM
COC(=O)c1ccc(O)c(Cl)c1,solubility,30 °C,1.34 mM
C=CCC(C(=O)O)C(C)C(=O)O (centres undefined),solubility,20 °C,87.1 mM
O=C(O)CC[Se][Se]CCC(=O)O,solubility,25 °C,5.39 mM
NCCCCCCNCCCCCCCCCCC(=O)O,solubility,20 °C,4.99 mM
O=C1CCCCCCCCCCCCCCCCCN1,solubility,22 °C,1.42 mM
NC(=O)C[C@H](NC(=O)CCl)C(=O)O,solubility,,479 mM
O=C(O)CCC[Se][Se]CCCC(=O)O,solubility,25 °C,5.66 mM
CCNCNC(=O)c1ccccc1,solubility,25 °C,842 mM
CCC(CC)COC(=O)NS(N)(=O)=O,solubility,25 °C,17.8 mM
CCOc1nsc(N)n1,solubility,20 °C,223 mM
NC(=O)C(N)C(O)C(=O)O (centres undefined),solubility,20 °C,70.9 mM
O=C(O)Cc1ccccc1C(=O)O,solubility,20 °C,88.8 mM
CCCCC(=O)Oc1ccc([N+](=O)[O-])cc1,solubility,25 °C,0.0403 mM
COc1ccc(NCC(O)CO)cc1 (centres undefined),solubility,,507 mM
C1CCC2NCCCC2C1 (centres undefined),solubility,25 °C,82.6 mM
O=S(=O)(O)c1cc(O)c2cc(Nc3ccccc3)ccc2c1,solubility,,10.6 mM
C[C@H]1NC(=O)[C@@H](C)NC1=O,solubility,,703 mM
N#Cc1cccc(N)c1,solubility,20 °C,67.7 mM
